Experimental findings from patent publication US20230330021A1, “DRUG-LOADED POLYMER VESICLE HAVING ASYMMETRIC MEMBRANE STRUCTURE, PREPARATION METHOD THEREFOR, AND APPLICATION THEREOF IN PREPARATION OF DRUGS FOR TREATING ACUTE MYELOID LEUKEMIA” (SOOCHOW UNIVERSITY, priority 2020, published 2023) are described below.

Experiment [1] concerns orthotopic MV4-11-GFP-Luc-bearing mice. In words: Antitumor effect of A6-cPS-VCR in orthotopic AML model. Format: in vivo. As for the experimental part: (§1) Construction of an in situ MV4-11-GFP-Luc acute myeloid leukemia mouse model: All animal experiments and operations were approved by the Experimental Animal Center of Soochow University and the Animal Care and Use Committee of Soochow University. […] Mice were first irradiated with X-rays (2.0 Gy), then the antibody CD122 (10 mg/kg mouse) was injected intraperitoneally, and 6 hours later, MV4-11-GFP-Luc cells (1×10^5 cells/mouse) injected into mice by tail vein. After inoculation, the proliferation and proliferation of leukemia cells in mice were observed by in vivo imaging of small animals (FIG. 12).
Antitumor effect of A6-cPS-VCR in orthotopic MV4-11-GFP-Luc-bearing mice: To study the antitumor effect of A6-cPS-VCR on orthotopic MV4-11-GFP-Luc bearing mice Tumor effect, the following treatment plan was designed (FIG. 14): the first injection was injected on the 6th day after the inoculation, which was counted as the 0th day, and the second injection was given on the 2nd day. The dose of VCR was 0.50 mg/kg, and the control group was injected with 100 µL PBS. There were 10 tumor-bearing mice in each group. […] Mice lose weight before dying. […] And cPS-VCR (11 days), prolonged 1.5-2.7 times.
In order to further accurately and quantitatively analyze the proliferation of leukemia cells in mice, on the 4th day, 3 mice in each group were randomly selected for dissection, and the leukocytes in the liver, spleen and bone marrow were extracted, and the content of leukemia cells was detected by flow cytometry. And the liver, spleen and bone marrow slices were analyzed to observe the damage.
Acute myeloid leukemia cells abnormally proliferate in the bone marrow of mice, resulting in osteolytic lesions in mice. Therefore, micro-CT was used to evaluate the relevant indexes of the femur of each group of mice.

In experiment [2] the test system is MV4-11 cells. Briefly: Apoptosis, AnnexinV/PI flow cytometry. The format is cell-based. The note with it: VCR 10 ng/mL. As for the experimental part: A6-cPS-VCR-targeted polymer vesicle nanomedicine induces apoptosis and cell cycle: First, MV4-11 cells were plated in a 24-well plate at a density of 2 × 10^5 cells/well and cultured for 24 hours. 20 µL of A6-cPS-VCR, cPS-VCR or VCR (concentration of VCR was 10 ng/mL) was added, respectively, and 20 µL of PBS was added to the control group. After 4 hours of incubation, the supernatant was removed by centrifugation (3000 rpm, 10 minutes), then fresh RPMI-1640 complete medium was added, the cells were blown off and placed in the incubator for a further 44 hours. Cells were collected in a flow tube, centrifuged (800 rpm, 5 min) and washed twice with 4° C. cold PBS. Finally, 200 µL of binding buffer was added to resuspend the cells. After pipetting evenly, taken 100 µL of it into the flow tube, added 5 µL of AnnexinV-F647 and 10 µL of PI solution in sequence, and stain at room temperature for 15 minutes in the dark, then add 400 µL of PBS and mix evenly to stop the staining, and detection by a flow cytometer within 1 hour. Among them, the cells that were treated in a 50° C. water bath for 5 minutes and fixed with 4% paraformaldehyde for 5 minutes were added with 5 µL of AnnexinV-F647 solution and 10 µL of PI solution for staining for 15 minutes respectively. Cytometer for testing.
(In general: Flow cytometry measures light scatter and fluorescence of single cells or particles in a stream.)

Another experiment concerns YNH-1. In words: Cell proliferation inhibition assay (CCK8 method). The format is cell-based. The note with it: CD44-negative YNH-1. Background: Formazan colour is commonly taken as a measure of viable cells.
The test system of experiment [3] is MV4-11 cells. Briefly: Cell cycle, PI flow cytometry. The following applies: VCR 10 ng/mL. Format: cell-based. As for the experimental part:
The cell culture and treatment of the cell cycle experiment of A6-cPS-VCR refer to the above method, and only add 1 mL of PBS to resuspend the cells at the end. Then, 4 mL of ice 95% ethanol was added to fix the cells for 12 hours, and 400 µL of PI staining solution was added for 30 minutes in the dark on a shaker at 37° C. Finally, the cells were tested by flow cytometry.

In a further experiment the test system is OCI-AML-3. In words: Cell proliferation inhibition assay (CCK8 method). The format is cell-based. The following applies: CD44-negative OCI-AML-3.
Experiment [4] deals with orthotopic MV4-11-GFP-Luc-bearing mice. In words: Antitumor effect of A6-cPS-DNR in orthotopic AML model. Format: in vivo. The note with it: DNR 2 mg/kg. As for the experimental part: as §1
Antitumor effect of A6-cPS-DNR in orthotopic MV4-11-GFP-Luc-bearing mice: To study the antitumor effect of A6-cPS-DNR on orthotopic MV4-11-GFP-Luc-bearing mice Tumor effect (refer to Example 11 for the design scheme). The DNR dose was 2 mg/kg, and A6-cPS-DNR was increased by 3 mg/kg in a high-dose group. The blank control group was injected with 100 µL PBS. There were 3 tumor-bearing mice in each group.

Where a name gives a salt, the structure may show the parent alone.

Take `CC[C@]1(O)C[C@H]2CN(CCc3c([nH]c4ccccc34)[C@@](C(=O)OC)(c3cc4c(cc3OC)N(C=O)[C@H]3[C@@](O)(C(=O)OC)[C@H](OC(C)=O)[C@]5(CC)C=CCN6CC[C@]43[C@@H]65)C2)C1` [VCR, vincristine sulfate]: the “leukemia levels in the liver, spleen and bone marrow, flow cytometry” value in experiment [1] (4th day, 3 mice per group) is “reduced”. In experiment [1] (VCR 0.50 mg/kg), this molecule showed a median survival time of 9 days. In experiment [1] (VCR 0.50 mg/kg, injections day 0 and day 2), the “proliferation of MV4-11-GFP-Luc cells, bioluminescence imaging” value is given as “proliferated slowly during drug administration, but proliferated rapidly after drug withdrawal”. Moreover, the apoptosis in the experiment with MV4-11 cells [2] is reported as 16.7%. Besides, the proliferation inhibition result in the experiment on YNH-1 and in the experiment with OCI-AML-3 was “no significant difference” throughout. Also, the “effect on cell cycle” value in the experiment on MV4-11 cells [3] was “arresting cells in G2/M phase”.

For `COc1cccc2c1C(=O)c1c(O)c3c(c(O)c1C2=O)C[C@@](O)(C(C)=O)C[C@@H]3O[C@H]1C[C@H](N)[C@H](O)[C@H](C)O1` [DNR, daunorubicin], the “fluorescence quantification, bioluminescence imaging” value in experiment [4] is recorded as “decreased slightly”.
